In patent US20170056351A1, “COMPOSITION FOR INDUCING TUMOR IMMUNITY” (UNIVERSITY OF OCCUPATIONAL AND ENVIRONMENTAL HEALTH, JAPAN, priority 2014, published 2017):

Assays:
[1] = test system: U251 cells; assay: Intracellular level of 5-ALA-induced PpIX by flow cytometric analysis, U251; type: cell-based, human; conditions: average±SE
Procedure: Two types of rat glioma cell lines (9L and C6) and human glioma cell lines (U251 and T98G) were used. Before use, 9L and T98G were cultured in RPMI-1640 at 37° C. for several days, whereas C6 and U251 were cultured in 10% FBS-added Dulbecco's modified Eagle's medium (DMEM) at 37° C. for several days. These cell lines were maintained at 37° C. in 5% CO2 in a humidified incubator. The cells were subcultured at an exponential growth phase thereof, using 0.05% trypsin solution containing 0.5 mM ethylenediamine tetraacetate. 70% confluent cells were used in the subsequent experiments. 5-ALA was dissolved in RPMI-1640 (9L and T98G), or in 10% FBS-added DMEM (C6 and U251), to a final concentration of 1 mM.
The cells were seeded on a 100-mm culture dish, and were then cultured. The cells were incubated in a complete medium containing 1 mM 5-ALA for 4 hours, and were then washed with PBS. The resulting cells were peeled from the bottom layer by a trypsin treatment, and were then recovered by centrifugation (400×g, 3 min, and 4° C.). Immediately after the recovery, the cells were re-suspended in cold PBS/FBS, and were then analyzed using a flow cytometer (EC800; Sony Biotechnology, Tokyo, Japan). Generally, 30,000 cells contained in each sample were evaluated. Using 488-nm argon ion laser, fluorescence was excited from intracellular PpIX, and the fluorescence was then detected using a 640/30 nm band-pass filter. In order to prevent photoactivation of 5-ALA-induced PpIX, all procedures were carried out in a dark room. The flow cytometric data were analyzed using FlowJo (Tree Star Inc., Ashland, Oreg., USA). The mean fluorescence intensity (MFI) of PpIX fluorescence in the 5-ALA-treated cells, with respect to that of 5-ALA-not-treated cells, was calculated for each cell line.

[2] = test system: U251 cells; assay: Cellular ROS levels after ionizing irradiation (DCFD, flow cytometry), U251; type: cell-based, human; conditions: for relative MFI of DCF fluorescence 12 hours after ionizing irradiation, timing study: 10 Gy
Procedure: Intracellular ROS production was evaluated using the oxidant-sensitive fluorescence probe DCFD and flow cytometry (Yamamori T, Yasui H, Yamazumi M, et al: Ionizing radiation induces mitochondrial reactive oxygen species production accompanied by upregulation of mitochondrial electron transport chain function and mitochondrial content under control of the cell cycle checkpoint. Free Radic Biol Med 53: 260-270, 2012.). The cells were seeded on a 100-mm culture dish, and using an X-ray irradiation apparatus (MBR-1520R; Hitachi, Tokyo, Japan) (0.67 Gy/min), the cells were then irradiated with a radiation of 10 Gy in a dark room. During the ionizing irradiation, the culture dish was maintained at a room temperature in a dark container. In the case of a 5-ALA and ionizing irradiation group (RT,12 h+ALA), the cells were treated with 1 mM 5-ALA for 4 hours, then, immediately after the treatment, the cells were irradiated with ionizing radiation, and were then incubated together with 10 μM DCFD at 37° C. for 15 minutes, followed by washing with PBS twice. Thereafter, as described above, the cells were analyzed using a flow cytometer (excitation: 488 nm; radiation: 525/50 nm band-pass filter). Control cells were not exposed to ionizing radiation or 5-ALA. In a 5-ALA group, the cells were treated with 1 mM 5-ALA for 4 hours, but were not exposed to ionizing radiation. The control cells and the cells of the 5-ALA group were treated with DCFD in the same manner as described above. In order to prevent the photoactivation of 5-ALA-induced PpIX and DCFD, all procedures were carried out in a dark room. The flow cytometric data were analyzed using FlowJo (Tree Star Inc., Ashland, Oreg., USA). The MFI of the DCF fluorescence in the cells, with respect to that in control cells, was calculated for each cell line.
The cells were seeded on a 100-mm culture dish, and were then exposed to an ionizing radiation of 10 Gy. The incubation time (4 h) of 1 mM 5-ALA was the same among individual groups, and three types of 5-ALA treatment times were initiated: i) 5-ALA treatment immediately before ionizing irradiation [RT+ALA (pre) group]; ii) 5-ALA treatment immediately after ionizing irradiation [RT+ALA (4 h) group]; and iii) 5-ALA treatment 8 hours after ionizing irradiation [RT+ALA (12 h) group]. In each group, twelve hours after the ionizing irradiation, the cells were incubated together with 10 μM DCFD at 37° C. for 15 minutes, and were then washed with PBS twice. Immediately after the washing, as described above, DCF fluorescence was analyzed using a flow cytometer. Control cells were not treated with ionizing radiation or 5-ALA. In a group involving only ionizing irradiation (RT), the cells were exposed to ionizing radiation, without performing 5-ALA treatments, and were then treated with DCFD twelve hours after the exposure to the ionizing radiation in the same manner as described above. All procedures were carried out in a dark room. The flow cytometric data were analyzed using FlowJo software. The MFI of the DCF fluorescence in the cells, with respect to that in control cells, was calculated for each cell line.

[3] = living body; cited from earlier work

## NCC(=O)CCC(=O)O [ALA, 5-aminolevulinic acid]
[1]; 1 mM 5-ALA for 4 hours, relative to 5-ALA-not-treated cells
  relative MFI of PpIX fluorescence: 37.6±0.12
[1]; 4 hours after ionizing irradiation
  relative MFI of PpIX fluorescence after ionizing irradiation: 41.6±0.20
[1]; 12 hours after ionizing irradiation
  relative MFI of PpIX fluorescence after ionizing irradiation: 44.2±3.67
[1]; 24 hours after ionizing irradiation
  relative MFI of PpIX fluorescence after ionizing irradiation: 51.1±3.76
[2]; 1 mM 5-ALA 4 hours, without ionizing irradiation, relative to control cells, average±SE
  relative MFI of DCF fluorescence (cellular ROS): 0.87±0.06
[2]; 5-ALA treatment 8 hours after ionizing irradiation, RT+ALA (12 h) group
  relative MFI of DCF fluorescence 12 hours after ionizing irradiation, timing study: 1.38±0.05
[2]; 5-ALA treatment immediately after ionizing irradiation, RT+ALA (4 h) group
  relative MFI of DCF fluorescence 12 hours after ionizing irradiation, timing study: 1.43±0.02
[2]; 5-ALA treatment immediately before ionizing irradiation, RT+ALA (pre) group
  relative MFI of DCF fluorescence 12 hours after ionizing irradiation, timing study: 1.44±0.02
[2]; 12 hours after 10 Gy ionizing irradiation with 5-ALA pre-treatment (1 mM, 4 hours), p=0.031 vs RT 12 h
  relative MFI of DCF fluorescence (cellular ROS): 1.51±0.10
[3]
  time until ALA is metabolized and discharged from the body: ≤ 48 h
